ChEMBL document CHEMBL5344441, “Discovery and Preclinical Pharmacology of NX-2127, an Orally Bioavailable Degrader of Bruton's Tyrosine Kinase with Immunomodulatory Activity for the Treatment of Patients with B Cell Malignancies” (J Med Chem, 2024)
pIC50, pKd: −log10 of the molar value. Activity calls are given as the source filed them. No cut-off for these calls is given here.

Experiments:
[1] = target: T1, Protein cereblon/Tyrosine-protein kinase BTK (Homo sapiens, UniProt Q06187+Q96SW2); experiment: PROTAC activity at CRBN/BTK in human TMD8 cells assessed as degradation of BTK protein incubated for 4 hrs by HTRF assay; type: cell-based
[2] = target: T1, Protein cereblon/Tyrosine-protein kinase BTK; experiment: PROTAC activity at CRBN/BTK in human TMD8 cells assessed as maximal degradation of BTK protein incubated for 4 hrs by HTRF assay relative to control; type: cell-based
Target sequence in this assay (Q06187 2-659 limits assumed): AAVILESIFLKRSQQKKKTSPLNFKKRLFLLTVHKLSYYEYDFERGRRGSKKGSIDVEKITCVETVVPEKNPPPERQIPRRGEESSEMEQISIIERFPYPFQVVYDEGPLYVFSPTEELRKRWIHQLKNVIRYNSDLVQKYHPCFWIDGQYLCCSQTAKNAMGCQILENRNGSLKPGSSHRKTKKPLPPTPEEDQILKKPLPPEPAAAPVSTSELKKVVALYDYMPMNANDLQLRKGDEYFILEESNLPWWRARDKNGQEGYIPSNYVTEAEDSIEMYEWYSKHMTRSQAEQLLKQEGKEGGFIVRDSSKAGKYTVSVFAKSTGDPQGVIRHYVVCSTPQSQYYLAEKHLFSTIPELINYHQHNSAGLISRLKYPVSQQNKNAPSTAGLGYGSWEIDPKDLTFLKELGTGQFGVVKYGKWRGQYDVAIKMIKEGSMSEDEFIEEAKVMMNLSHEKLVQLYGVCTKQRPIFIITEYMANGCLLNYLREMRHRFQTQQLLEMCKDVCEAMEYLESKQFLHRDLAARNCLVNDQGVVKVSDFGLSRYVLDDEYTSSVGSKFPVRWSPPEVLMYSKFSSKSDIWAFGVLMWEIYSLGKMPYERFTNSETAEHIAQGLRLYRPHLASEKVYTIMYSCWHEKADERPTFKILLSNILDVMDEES
Target sequence in this assay (Q96SW2 whole entry partner): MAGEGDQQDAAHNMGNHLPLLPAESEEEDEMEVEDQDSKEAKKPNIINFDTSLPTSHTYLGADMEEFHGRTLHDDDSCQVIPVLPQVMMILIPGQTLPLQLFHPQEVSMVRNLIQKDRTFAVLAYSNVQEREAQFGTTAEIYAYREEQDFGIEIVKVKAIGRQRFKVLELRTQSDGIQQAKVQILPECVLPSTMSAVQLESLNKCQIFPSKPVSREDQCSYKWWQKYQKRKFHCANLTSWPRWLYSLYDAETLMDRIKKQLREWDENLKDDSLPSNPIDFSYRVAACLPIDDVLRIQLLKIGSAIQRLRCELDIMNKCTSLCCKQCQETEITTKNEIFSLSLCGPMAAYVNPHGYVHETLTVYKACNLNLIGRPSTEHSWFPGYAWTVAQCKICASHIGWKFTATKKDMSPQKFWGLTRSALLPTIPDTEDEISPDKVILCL

[3] = Lipophilicity, logD of compound at pH 7.4; type: physicochemical; settings: buffer
[4] = target: T2, Cereblon/Ikaros (Homo sapiens, UniProt Q96SW2+Q13422); experiment: PROTAC activity at CRBN/IKZF1 in human T cell assessed as degradation of IKZF1 protein incubated for 24 hrs by flow cytometry; type: cell-based
[5] = Plasma protein binding in rat; type: ADME, cell-free; settings: read-out: PPB
[6] = Plasma protein binding in cynomolgus monkey; type: ADME, cell-free, Macaca fascicularis; settings: read-out: PPB (converted)
[7] = Plasma protein binding in human; type: ADME, cell-free; settings: read-out: PPB (converted)
[8] = Observed clearance in mouse at 1 mg/kg,iv; type: ADME, organism-based; settings: in vivo
[9] = AUC in mouse at 10 mg/kg,po; type: ADME, organism-based; parameters: dose 10 mg/kg, route po; settings: in vivo
[10] = Observed clearance in rat at 1 mg/kg,iv; type: ADME, organism-based; settings: in vivo
[11] = Observed clearance in dog at 1 mg/kg,iv; type: ADME, organism-based, Canis lupus familiaris; settings: in vivo
[12] = AUC in dog at 10 mg/kg,po; type: ADME, organism-based, Canis lupus familiaris; parameters: dose 10 mg/kg, route po; settings: in vivo
[13] = AUC in cynomolgus monkey at 10 mg/kg,po; type: ADME, organism-based, Macaca fascicularis; parameters: dose 10 mg/kg, route po; settings: in vivo
[14] = Cmax in rat at 10 mg/kg,po; type: ADME, organism-based; parameters: dose 10 mg/kg, route po; settings: in vivo
[15] = Cmax in dog at 10 mg/kg,po; type: ADME, organism-based, Canis lupus familiaris; parameters: dose 10 mg/kg, route po; settings: in vivo
[16] = Cmax in cynomolgus monkey at 10 mg/kg,po; type: ADME, organism-based, Macaca fascicularis; parameters: dose 10 mg/kg, route po; settings: in vivo
[17] = Oral bioavailability in dog at 10 mg/kg; type: ADME, organism-based, Canis lupus familiaris; settings: in vivo
[18] = target: T3, Protein cereblon/Tyrosine-protein kinase BTK (Mus musculus) (UniProt P35991+Q8C7D2); experiment: In vivo protac activity at CRBN/BTK in mouse assessed as remaining BTK protein at 10 mg/kg,po administration measured after 24 hrs by flow cytomtery relative to control; type: functional, organism-based
[19] = system: T-cell; experiment: Activation of T-cellular function in anti-CD3/anti-CD28 activated human T cell assessed as increase in IL-2 secretion at 0.001 to 100 nM incubated for 24 hrs followed by anti-CD3/anti-CD28 stimulation by ELISA; type: functional, cell-based; settings: dose 0.001-100 nM
[20] = target: T1, Protein cereblon/Tyrosine-protein kinase BTK; experiment: PROTAC activity at CRBN/BTK in human PBMC cells asessed as degradation of BTK protein at 50 nM incubated for 4 hrs by proteomics assay based LC-MS/MS analysis; type: cell-based
Target sequence in this assay (Q06187 2-659 limits assumed): as the sequence (Q06187 2-659 limits assumed) above
Target sequence in this assay (Q96SW2 whole entry partner): as the sequence (Q96SW2 whole entry partner) above

[21] = Drug uptake in BALB/c mouse plasma at po administration; type: ADME, organism-based; settings: in vivo
[22] = Drug uptake in cynomolgus monkey plasma at po administration measured for 24 hrs; type: ADME, organism-based, Macaca fascicularis; settings: in vivo
[23] = Cmax in cynomolgus monkey at 10 mg/kg,po administration for 1 day; type: ADME, organism-based, Macaca fascicularis; parameters: time 1 day, dose 10 mg/kg, route po; settings: in vivo, 24 h
[24] = Cmax in cynomolgus monkey at 10 mg/kg,po administration for 14 days; type: ADME, organism-based, Macaca fascicularis; parameters: dose 10 mg/kg, time 14 day, route po; settings: in vivo
[25] = AUClast in cynomolgus monkey at 10 mg/kg,po administration for 1 day; type: ADME, organism-based, Macaca fascicularis; parameters: dose 10 mg/kg, time 1 day, route po; settings: in vivo
[26] = target: T4, Protein cereblon-BTK (Macaca fascicularis) (UniProt A0A2K5UTB3+A0A7N9IGT8); experiment: In vivo protac activity at CRBN/BTK in cynomolgus monkey assessed as degradation of BTK protein at po administration measured after 24 hrs by flow cytomtery; type: functional, organism-based
[27] = target: T4, Protein cereblon-BTK (Macaca fascicularis); experiment: In vivo protac activity at CRBN/BTK in cynomolgus monkey assessed as remaining BTK protein in B cells at 10 mg/kg,po administration for 1 day by flow cytomtery relative to control; type: functional, organism-based
[28] = target: T5, Protein cereblon/Zinc finger protein Aiolos (Macaca fascicularis) (UniProt A0A2K5UTB3+A0A2K5VJM3); experiment: In vivo protac activity at CRBN/IKZF3 in cynomolgus monkey assessed as degradation of IKZF3 protein at 10 to 100 mg/kg,po administration by flow cytomtery; type: functional, organism-based; settings: dose 10-100 mg/kg
[29] = target: T5, Protein cereblon/Zinc finger protein Aiolos (Macaca fascicularis); experiment: In vivo protac activity at CRBN/IKZF3 in cynomolgus monkey assessed as degradation of IKZF3 protein at 10 mg/kg,po administration for 14 days by flow cytomtery relative to control; type: functional, organism-based; settings: time 14.0 day
[30] = target: T2, Cereblon/Ikaros; experiment: In vivo protac activity at CRBN/IKZF1 in CB17-SCID mouse xenografted with human TMD8 cells assessed as degradation of IKZF1 protein in tumor at 10 to 90 mg/kg,po administration for 25 days by flow cytomtery; type: functional, organism-based; settings: dose 10-90 mg/kg, time 25.0 day
[31] = target: Protein cereblon/Zinc finger protein Aiolos (Homo sapiens, UniProt Q96SW2+Q9UKT9); experiment: In vivo protac activity at CRBN/IKZF3 in CB17-SCID mouse xenografted with human TMD8 cells assessed as degradation of IKZF3 protein in tumor at 10 to 90 mg/kg,po administration for 25 days by flow cytomtery; type: functional, organism-based; settings: dose 10-90 mg/kg, time 25.0 day
[32] = system: TMD8; experiment: Antitumor activity against human TMD8 cells expressing wild type BTK xenografted in CB17-SCID mouse assessed as tumor growth inhibition at 10 mg/kg,po administration for 25 days; type: functional; settings: TMD8, 600 h, time 25 day, read-out: TGI
[33] = system: TMD8; experiment: Antitumor activity against human TMD8 cells expressing wild type BTK xenografted in CB17-SCID mouse assessed as tumor growth inhibition at 30 mg/kg,po administration for 25 days; type: functional; settings: TMD8, 600 h, time 25 day, read-out: TGI
[34] = system: TMD8; experiment: Antitumor activity against human TMD8 cells expressing BTK C481S mutant xenografted in CB17-SCID mouse assessed as tumor growth inhibition at 10 mg/kg,po administration for 25 days; type: functional; settings: TMD8, 600 h, time 25 day, read-out: TGI
[35] = system: TMD8; experiment: Antitumor activity against human TMD8 cells expressing BTK C481S mutant xenografted in CB17-SCID mouse assessed as tumor growth inhibition at 30 mg/kg,po administration for 25 days; type: functional; settings: TMD8, 600 h, time 25 day, read-out: TGI
[36] = system: TMD8; experiment: Antitumor activity against human TMD8 cells expressing BTK C481S mutant xenografted in CB17-SCID mouse assessed as tumor growth inhibition at 90 mg/kg,po administration for 25 days; type: functional; settings: TMD8, 600 h, time 25 day, read-out: TGI
[37] = target: T6, Cytochrome P450 3A4 (Homo sapiens, UniProt P08684); experiment: Inhibition of CYP3A4 (unknown origin); type: ADME
[38] = target: Cytochrome P450 2C9 (Homo sapiens, UniProt P11712); experiment: Inhibition of CYP2C9 (unknown origin); type: ADME
[39] = target: Cytochrome P450 1A2 (Homo sapiens, UniProt P05177); experiment: Inhibition of CYP1A2 (unknown origin); type: ADME
[40] = target: T6, Cytochrome P450 3A4; experiment: Time dependent inhibition of CYP3A4 (unknown origin); type: ADME
[41] = target: Tyrosine-protein kinase BTK (Homo sapiens, UniProt Q06187, C481S); experiment: Binding affinity to BTK C481S mutant (unknown origin) assessed as dissociation constant by surface plasmon resonance assay
[42] = target: T3, Protein cereblon/Tyrosine-protein kinase BTK (Mus musculus); experiment: In vivo protac activity at CRBN/BTK in BALB/c mouse assessed as residual BTK protein in blood at 3 mg/kg,po administration measured after 24 hrs by flow cytomtery relative to control

T6 sequence (P08684 whole entry): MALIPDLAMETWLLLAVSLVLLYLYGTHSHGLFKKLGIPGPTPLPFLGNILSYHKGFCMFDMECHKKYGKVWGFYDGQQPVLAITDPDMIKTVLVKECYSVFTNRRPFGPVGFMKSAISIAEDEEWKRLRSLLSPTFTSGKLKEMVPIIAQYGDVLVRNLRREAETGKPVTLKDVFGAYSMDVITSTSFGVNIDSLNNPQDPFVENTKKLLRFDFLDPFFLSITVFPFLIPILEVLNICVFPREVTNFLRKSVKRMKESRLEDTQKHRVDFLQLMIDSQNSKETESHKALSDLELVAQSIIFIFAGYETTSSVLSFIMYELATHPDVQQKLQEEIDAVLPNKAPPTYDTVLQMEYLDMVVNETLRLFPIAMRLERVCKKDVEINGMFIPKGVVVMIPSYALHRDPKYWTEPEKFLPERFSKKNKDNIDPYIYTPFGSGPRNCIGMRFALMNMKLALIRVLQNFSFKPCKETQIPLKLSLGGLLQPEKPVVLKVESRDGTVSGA
T3 sequence (P35991 whole entry, looked up): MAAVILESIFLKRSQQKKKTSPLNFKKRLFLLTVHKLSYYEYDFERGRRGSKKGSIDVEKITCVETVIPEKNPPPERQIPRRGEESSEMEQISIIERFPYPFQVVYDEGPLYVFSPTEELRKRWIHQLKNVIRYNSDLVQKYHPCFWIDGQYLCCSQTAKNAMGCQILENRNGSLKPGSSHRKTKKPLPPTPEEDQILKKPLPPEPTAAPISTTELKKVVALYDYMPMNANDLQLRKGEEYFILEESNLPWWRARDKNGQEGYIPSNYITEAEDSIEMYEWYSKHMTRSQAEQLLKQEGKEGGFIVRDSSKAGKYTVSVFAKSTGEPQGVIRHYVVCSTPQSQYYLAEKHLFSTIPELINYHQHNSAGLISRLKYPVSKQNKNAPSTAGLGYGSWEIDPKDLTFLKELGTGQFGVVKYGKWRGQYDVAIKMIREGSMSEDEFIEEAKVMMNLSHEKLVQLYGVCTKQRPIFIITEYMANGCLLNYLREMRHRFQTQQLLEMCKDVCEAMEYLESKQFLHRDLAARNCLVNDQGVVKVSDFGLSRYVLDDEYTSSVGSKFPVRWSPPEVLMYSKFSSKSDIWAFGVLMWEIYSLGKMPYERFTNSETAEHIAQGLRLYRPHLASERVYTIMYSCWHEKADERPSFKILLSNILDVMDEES
T3 sequence (Q8C7D2 whole entry, looked up): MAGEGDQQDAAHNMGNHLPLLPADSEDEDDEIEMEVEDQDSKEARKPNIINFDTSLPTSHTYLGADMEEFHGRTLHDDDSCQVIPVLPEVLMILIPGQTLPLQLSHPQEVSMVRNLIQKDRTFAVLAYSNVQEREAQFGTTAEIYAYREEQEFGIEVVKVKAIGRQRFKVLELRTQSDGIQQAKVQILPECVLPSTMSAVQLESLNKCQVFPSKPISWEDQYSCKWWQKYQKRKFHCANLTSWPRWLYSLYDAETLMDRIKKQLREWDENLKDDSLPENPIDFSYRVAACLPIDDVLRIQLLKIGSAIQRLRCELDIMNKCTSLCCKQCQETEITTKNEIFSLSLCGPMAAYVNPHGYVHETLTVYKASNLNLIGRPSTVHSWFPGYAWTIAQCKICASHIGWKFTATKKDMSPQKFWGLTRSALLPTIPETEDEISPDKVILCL
T4 sequence (A0A2K5UTB3 1-488): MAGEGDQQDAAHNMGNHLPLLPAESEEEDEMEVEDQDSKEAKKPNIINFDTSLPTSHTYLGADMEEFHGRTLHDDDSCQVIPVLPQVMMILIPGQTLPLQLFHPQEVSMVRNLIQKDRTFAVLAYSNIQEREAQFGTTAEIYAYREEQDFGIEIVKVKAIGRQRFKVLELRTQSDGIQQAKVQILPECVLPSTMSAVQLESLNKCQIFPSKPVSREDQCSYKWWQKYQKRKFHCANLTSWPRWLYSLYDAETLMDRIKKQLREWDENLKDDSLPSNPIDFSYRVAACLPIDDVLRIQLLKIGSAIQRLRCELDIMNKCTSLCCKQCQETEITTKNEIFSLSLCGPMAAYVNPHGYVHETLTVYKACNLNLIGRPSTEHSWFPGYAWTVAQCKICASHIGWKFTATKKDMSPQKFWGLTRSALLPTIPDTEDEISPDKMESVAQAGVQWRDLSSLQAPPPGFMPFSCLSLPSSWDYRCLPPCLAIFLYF
T4 sequence (A0A7N9IGT8 entry or part of it partner): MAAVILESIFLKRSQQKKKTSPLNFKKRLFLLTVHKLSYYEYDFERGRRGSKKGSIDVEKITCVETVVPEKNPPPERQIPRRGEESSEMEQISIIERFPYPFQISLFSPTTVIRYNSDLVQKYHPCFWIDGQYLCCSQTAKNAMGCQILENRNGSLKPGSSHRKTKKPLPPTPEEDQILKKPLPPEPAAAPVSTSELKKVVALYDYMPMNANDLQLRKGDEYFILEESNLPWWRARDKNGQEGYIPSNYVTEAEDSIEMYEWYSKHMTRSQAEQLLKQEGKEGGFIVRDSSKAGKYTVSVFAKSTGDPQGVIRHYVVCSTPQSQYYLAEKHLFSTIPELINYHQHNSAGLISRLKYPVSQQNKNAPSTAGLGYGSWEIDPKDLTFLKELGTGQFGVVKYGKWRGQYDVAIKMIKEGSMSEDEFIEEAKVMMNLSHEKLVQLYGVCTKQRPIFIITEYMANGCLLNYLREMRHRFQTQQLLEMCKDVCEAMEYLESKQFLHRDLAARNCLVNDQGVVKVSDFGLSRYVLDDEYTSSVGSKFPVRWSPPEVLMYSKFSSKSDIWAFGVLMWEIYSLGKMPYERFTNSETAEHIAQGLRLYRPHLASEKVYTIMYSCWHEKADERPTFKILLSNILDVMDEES
T5 sequence (A0A2K5UTB3 1-488): as the sequence (A0A2K5UTB3 1-488) above
T5 sequence (A0A2K5VJM3 entry or part of it partner): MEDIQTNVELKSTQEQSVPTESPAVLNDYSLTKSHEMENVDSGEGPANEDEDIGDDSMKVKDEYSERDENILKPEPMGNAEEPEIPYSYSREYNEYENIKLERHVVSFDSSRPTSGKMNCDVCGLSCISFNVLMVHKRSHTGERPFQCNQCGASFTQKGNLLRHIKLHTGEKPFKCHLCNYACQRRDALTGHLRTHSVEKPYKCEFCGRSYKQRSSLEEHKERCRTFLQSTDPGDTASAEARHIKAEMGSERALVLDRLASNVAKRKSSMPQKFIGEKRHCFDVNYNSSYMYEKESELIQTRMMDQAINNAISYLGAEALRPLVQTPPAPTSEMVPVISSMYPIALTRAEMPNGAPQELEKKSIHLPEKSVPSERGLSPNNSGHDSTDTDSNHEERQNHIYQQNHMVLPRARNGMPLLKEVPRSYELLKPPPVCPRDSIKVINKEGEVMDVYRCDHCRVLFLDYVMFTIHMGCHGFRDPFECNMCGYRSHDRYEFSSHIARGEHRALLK
Cytochrome P450 1A2, sequence (P05177 whole entry): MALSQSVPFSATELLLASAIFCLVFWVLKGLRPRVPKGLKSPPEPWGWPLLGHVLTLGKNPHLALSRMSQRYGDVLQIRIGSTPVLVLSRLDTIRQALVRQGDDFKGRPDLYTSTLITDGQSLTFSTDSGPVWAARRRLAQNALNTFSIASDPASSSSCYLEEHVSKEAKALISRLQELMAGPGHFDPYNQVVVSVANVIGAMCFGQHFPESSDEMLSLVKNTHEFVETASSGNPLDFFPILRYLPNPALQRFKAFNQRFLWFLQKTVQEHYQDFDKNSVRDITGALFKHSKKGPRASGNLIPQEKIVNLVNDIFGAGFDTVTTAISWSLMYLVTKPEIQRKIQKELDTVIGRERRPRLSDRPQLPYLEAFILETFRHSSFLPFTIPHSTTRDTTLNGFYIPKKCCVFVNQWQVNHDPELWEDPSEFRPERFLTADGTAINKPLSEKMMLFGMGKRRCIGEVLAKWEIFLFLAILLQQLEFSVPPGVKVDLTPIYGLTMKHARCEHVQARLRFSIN

## NC(=O)c1ncc(N2CCCCC2)nc1Nc1ccc(C2CCN(C[C@H]3CCN(c4ccc5c(c4)C(=O)N(C4CCC(=O)NC4=O)C5=O)C3)CC2)cc1 (some centres not stated) [ZELEBRUDOMIDE]
[1]
  DC50: 4.5 nM
[2]
  Emax: 94%
[3]
  logD: 3.1
[4]
  DC50: 57 nM
[5]
  fraction unbound: < 0.015
[6]
  fraction unbound: 0.046
[7]
  fraction unbound: 0.063
[8]
  clearance: 5.2 mL/min/kg
[9]
  AUC: 16 µM·h
[10]
  clearance: 19 mL/min/kg
[11]
  clearance: 18.4 mL/min/kg
[12]
  AUC: 0.13 µM·h
[13]
  AUC: 0.09 µM·h
[14]
  Cmax: 67 nM
[15]
  Cmax: 31 nM
[16]
  Cmax: 11 nM
[17]
  bioavailability: 1%
[18]
  Activity: 21%
[19]
  Activity: Active
[20]
  Activity: Active
[21]
  Drug uptake: Dose-Dependent Effect
[22]
  Drug uptake: Dose-Dependent Effect
[23]
  Cmax: 26.9 ng/mL
[24]
  Cmax: 25.4 ng/mL
[25]
  AUC(0-t) at 24 h: 267 ng·h/mL
[26]
  Activity: Dose-Dependent Effect
[27]
  Activity: 11%
[28]
  Activity: inactive
[29]
  Activity: 76%
[30]
  Activity: Active
[31]
  Activity: Active
[32]
  inhibition in vivo at 10 mg/kg: 35%
[33]
  inhibition in vivo at 30 mg/kg: 73%
[34]
  inhibition in vivo at 10 mg/kg: 17%
[35]
  inhibition in vivo at 30 mg/kg: 43%
[36]
  inhibition in vivo at 90 mg/kg: 59%
[37]
  pIC50: < 4.52
[38]
  pIC50: < 4.52
[39]
  pIC50: < 4.52
[40]
  TDI: Not Active
[41]
  pKd: 7.74
[42]
  residual activity: 36%
